Measurements published in ChEMBL document CHEMBL1201862, “PubChem BioAssay data set” (2004).
Activity calls are given as the source filed them.

Tests used:
[1] = molecular target: T1, Induced myeloid leukemia cell differentiation protein Mcl-1 (Homo sapiens, UniProt Q07820); test: MCL1-BIM BH3 interaction inhibitors, dose response, biochemical, fluorescence polarization, BIM-BH3 peptide, 1536-well (AID 2217)
[2] = system: Streptococcus sp. 'group A'; test: growth inhibition of control SK(-) GAS strain, dose response, counter-screen for streptokinase expression inhibitor project, luminescence, kanamycin, BacTiterGlo, confirmation (AID 1900); format: functional, organism-based
[3] = molecular target: Bcl-2-like protein 1 (Homo sapiens, UniProt Q07817); test: BCL-XL inhibitors, dose response, selectivity assay for MCL1 inhibitor project, biochemical, fluorescence polarization, 1536-well (AID 2218)
Chain of Bcl-2-like protein 1 (Q07817 whole entry): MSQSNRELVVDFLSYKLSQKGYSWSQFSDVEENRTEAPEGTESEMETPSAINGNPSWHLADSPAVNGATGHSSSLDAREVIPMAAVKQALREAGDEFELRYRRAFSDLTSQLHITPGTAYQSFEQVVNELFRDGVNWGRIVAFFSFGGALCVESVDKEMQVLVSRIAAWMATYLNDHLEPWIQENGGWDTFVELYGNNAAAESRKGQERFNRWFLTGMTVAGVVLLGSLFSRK

[4] = molecular target: Cysteine protease ATG4B (Homo sapiens, UniProt Q9Y4P1); format: functional;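 further: Fluorescence-based dose-response confirmation assay measuring inhibition of ATG4B activity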
Chain of Cysteine protease ATG4B (Q9Y4P1 whole entry): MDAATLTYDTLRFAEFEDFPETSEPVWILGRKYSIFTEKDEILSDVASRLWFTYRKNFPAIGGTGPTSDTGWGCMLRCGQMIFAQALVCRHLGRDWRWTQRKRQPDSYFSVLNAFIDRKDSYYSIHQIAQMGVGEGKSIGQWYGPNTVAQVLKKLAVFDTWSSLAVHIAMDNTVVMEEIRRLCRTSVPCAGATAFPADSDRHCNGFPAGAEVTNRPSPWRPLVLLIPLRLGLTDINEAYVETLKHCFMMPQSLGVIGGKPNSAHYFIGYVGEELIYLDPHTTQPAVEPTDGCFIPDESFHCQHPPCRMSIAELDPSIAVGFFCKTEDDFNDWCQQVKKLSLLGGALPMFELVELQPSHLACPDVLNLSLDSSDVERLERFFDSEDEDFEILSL

[5] = system: Streptococcus; test: Group A Streptococcus viability loss, dose response, counter-screen for streptokinase expression inhibitor project, luminescence, BacTiterGlo (AID 1915); format: functional, organism-based;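 further: potency for reduction of bacterial viability or growth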
[6] = molecular target: Phospholipase A2 (Homo sapiens, UniProt P04054); format: functional;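 further: confirmatory dose-response counterscreen on phospholipase A2, testing hits that came from an ultra-high-throughput screen for ATG4B inhibitors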
Chain of Phospholipase A2 (P04054 whole entry): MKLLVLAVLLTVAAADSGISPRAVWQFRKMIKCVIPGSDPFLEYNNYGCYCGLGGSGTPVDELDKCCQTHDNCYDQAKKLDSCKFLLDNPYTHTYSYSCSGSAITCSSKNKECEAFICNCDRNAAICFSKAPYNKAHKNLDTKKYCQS

[7] = THP-1 cell cytotoxicity, dose response, cytotoxicity control for non-replicating M. tuberculosis project (AID 489025); format: functional
[8] = molecular target: T2, Aminopeptidase N (Plasmodium falciparum FcB1/Columbia, UniProt O96935); test: P. falciparum M1AAP inhibitors, biochemical, fluorogenic H-Leu-NHMec substrate, 1536-well (AID 1445); design: species or system Plasmodium falciparum 3D7, 3D7
T2 sequence (O96935 whole entry): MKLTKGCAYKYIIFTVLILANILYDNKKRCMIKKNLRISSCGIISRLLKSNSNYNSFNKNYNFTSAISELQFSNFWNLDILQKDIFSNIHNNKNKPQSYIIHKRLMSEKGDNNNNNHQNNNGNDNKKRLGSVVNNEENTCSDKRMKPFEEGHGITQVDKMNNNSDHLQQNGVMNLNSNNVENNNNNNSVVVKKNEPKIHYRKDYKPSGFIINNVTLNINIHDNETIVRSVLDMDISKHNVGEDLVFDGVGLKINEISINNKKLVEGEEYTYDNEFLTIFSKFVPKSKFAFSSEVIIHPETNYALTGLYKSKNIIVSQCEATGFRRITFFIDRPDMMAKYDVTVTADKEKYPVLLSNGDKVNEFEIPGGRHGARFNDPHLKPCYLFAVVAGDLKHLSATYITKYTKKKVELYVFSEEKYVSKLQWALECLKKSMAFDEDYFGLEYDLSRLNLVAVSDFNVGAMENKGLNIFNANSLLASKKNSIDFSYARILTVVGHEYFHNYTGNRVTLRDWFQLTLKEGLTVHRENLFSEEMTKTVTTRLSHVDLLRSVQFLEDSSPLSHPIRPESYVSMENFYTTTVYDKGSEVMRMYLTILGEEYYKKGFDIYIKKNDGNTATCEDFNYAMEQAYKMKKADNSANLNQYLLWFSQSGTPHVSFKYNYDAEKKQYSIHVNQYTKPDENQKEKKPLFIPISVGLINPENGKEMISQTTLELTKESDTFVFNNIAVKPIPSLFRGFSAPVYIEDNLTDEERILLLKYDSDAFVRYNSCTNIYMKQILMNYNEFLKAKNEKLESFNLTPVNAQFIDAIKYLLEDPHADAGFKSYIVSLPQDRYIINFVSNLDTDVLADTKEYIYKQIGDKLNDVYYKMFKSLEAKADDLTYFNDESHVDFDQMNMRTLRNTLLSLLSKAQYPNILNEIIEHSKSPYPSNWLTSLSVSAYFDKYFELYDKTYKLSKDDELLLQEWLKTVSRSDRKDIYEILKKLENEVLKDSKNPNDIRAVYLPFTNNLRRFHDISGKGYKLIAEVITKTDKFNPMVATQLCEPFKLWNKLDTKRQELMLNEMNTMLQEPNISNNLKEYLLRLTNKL

[9] = molecular target: T1, Induced myeloid leukemia cell differentiation protein Mcl-1; format: functional
[10] = molecular target: Estrogen receptor beta (Homo sapiens, UniProt Q92731); test: ERβ–SRC-3 coactivator interaction inhibitors, confirmation, orthogonal assay, biochemical, ELISA, streptavidin-HRP readout (AID 1060)
Chain of Estrogen receptor beta (Q92731 whole entry): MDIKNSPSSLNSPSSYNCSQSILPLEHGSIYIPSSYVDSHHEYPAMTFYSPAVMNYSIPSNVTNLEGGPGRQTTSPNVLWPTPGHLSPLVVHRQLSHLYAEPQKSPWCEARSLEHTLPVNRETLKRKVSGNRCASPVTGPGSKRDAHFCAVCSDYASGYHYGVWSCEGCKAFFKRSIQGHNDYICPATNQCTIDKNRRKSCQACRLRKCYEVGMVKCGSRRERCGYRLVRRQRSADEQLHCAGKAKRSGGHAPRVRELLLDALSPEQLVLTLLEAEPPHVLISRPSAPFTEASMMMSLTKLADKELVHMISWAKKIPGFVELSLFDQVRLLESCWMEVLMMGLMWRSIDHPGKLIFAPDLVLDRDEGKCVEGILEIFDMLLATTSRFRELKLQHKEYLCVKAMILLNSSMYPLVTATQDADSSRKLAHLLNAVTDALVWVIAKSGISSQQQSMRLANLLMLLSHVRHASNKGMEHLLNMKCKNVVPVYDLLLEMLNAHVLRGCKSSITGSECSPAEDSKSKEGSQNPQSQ

[11] = HEp-2 cell cytotoxicity, dose response, cytotoxicity control for RSV inhibitor project, HTS (AID 2410); format: functional; conditions: human respiratory syncytial virus
[12] = molecular target: T3, Streptokinase A (Streptococcus pyogenes serotype M1, UniProt P10520); test: S. pyogenes streptokinase expression inhibitors, potency, dose response, plasminogen activation absorbance, OD405 (AID 1914); format: functional, Streptococcus pyogenes M1 GAS;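 further: secreted streptokinase activity via plasminogen activation per viability signal from cell pellet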
T3 sequence (P10520 whole entry): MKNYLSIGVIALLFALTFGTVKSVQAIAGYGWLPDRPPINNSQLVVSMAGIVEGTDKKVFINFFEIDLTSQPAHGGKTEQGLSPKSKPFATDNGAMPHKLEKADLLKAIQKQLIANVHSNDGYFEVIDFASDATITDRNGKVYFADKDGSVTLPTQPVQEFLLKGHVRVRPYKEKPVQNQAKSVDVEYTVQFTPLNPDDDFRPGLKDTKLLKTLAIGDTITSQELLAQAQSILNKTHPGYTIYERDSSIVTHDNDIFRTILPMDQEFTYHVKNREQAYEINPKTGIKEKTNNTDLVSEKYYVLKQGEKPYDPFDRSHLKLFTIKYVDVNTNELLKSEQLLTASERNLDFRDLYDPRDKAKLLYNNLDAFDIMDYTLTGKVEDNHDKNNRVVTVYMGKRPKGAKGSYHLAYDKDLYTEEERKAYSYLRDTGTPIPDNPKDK

[13] = Vero E6 cell cytotoxicity, dose response, cytotoxicity control for non-replicating M. tuberculosis project, secondary assay (AID 492998); format: functional, VeroE6; conditions: Vero C1008
[14] = molecular target: T4, High affinity choline transporter 1 (Homo sapiens, UniProt Q9GZV3); test: CHT activators, dose response, cell-based, 10-point CRC, membrane potential dye (AID 602376); format: functional
T4 sequence (Q9GZV3 whole entry): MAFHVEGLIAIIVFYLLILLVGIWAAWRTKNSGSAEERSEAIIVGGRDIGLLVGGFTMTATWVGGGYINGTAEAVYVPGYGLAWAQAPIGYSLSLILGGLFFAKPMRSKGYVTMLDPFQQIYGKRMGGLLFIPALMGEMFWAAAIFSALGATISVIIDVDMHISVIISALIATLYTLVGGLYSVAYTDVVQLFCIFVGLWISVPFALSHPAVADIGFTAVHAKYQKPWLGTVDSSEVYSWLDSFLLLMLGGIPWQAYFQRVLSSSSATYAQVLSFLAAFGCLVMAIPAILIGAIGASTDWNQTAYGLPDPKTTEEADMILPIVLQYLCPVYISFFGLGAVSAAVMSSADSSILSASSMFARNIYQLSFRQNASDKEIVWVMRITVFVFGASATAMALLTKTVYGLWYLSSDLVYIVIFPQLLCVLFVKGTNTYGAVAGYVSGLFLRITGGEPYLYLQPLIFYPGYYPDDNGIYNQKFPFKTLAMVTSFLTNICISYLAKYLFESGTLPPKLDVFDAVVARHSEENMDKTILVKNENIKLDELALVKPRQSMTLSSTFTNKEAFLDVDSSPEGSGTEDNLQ

T1 sequence (Q07820 whole entry): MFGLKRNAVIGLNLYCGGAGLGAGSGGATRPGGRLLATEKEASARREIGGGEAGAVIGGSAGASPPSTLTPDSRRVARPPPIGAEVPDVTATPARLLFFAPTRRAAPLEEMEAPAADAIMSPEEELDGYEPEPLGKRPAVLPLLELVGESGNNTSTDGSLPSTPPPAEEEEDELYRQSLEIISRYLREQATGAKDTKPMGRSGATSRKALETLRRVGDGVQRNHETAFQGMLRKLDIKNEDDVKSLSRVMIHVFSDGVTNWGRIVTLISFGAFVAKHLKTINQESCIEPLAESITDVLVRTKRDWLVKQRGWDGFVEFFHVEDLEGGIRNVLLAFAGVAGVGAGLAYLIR

Compound | IC50 [1] | EC50 [2] | IC50 [3] | IC50 [4] | EC50 [5] | IC50 [6] | CC50 [7] | IC50 [8] | IC50 [9] | IC50 [10] | CC50 [11] | EC50 [12] | CC50 [13] | EC50 [14]
C/C(=N/NC(=O)c1cc2ccccc2cc1O)C1C(=O)c2ccccc2C1=O | > 109 µM (not active) | 1.03 µM (active) | > 109 µM (not active) | 5.43 µM (active) | 10.1 µM (active) | 4.87 µM (active) | 17.7 µM (active) | 12 µM (active) | 2.11 µM (active) | 0.0588 µM (not active) | > 50 µM (active) | > 150 µM (not active) | 16.7 µM (active) | 
CC(c1ccccc1)N(CCC(c1ccccc1)C1CCOC(C)(C)C1)C(=O)c1ccco1 (centres undefined) |  |  |  |  |  |  |  |  |  |  |  |  |  | 5.67 µM (active)
